Test results reported in US12077503B2, “Substituted cyclic amides and their use as herbicides” (FMC CORPORATION, priority 2015, dated 2024).

What was measured:
Type in all cases: in vivo
[1] = test system: blackgrass (Alopecurus myosuroides); assay: Test A postemergence; conditions: Alopecurus myosuroides, post-emergence, 240 h, postemergence; for pest or weed control at 125 g/ha: 125 g ai/ha, visual injury vs untreated controls after approx. 10 d, 0 = no effect, 100 = complete control, read-out: Blackgrass plant response rating (0 to 100 scale); for pest or weed control at 500 g/ha: 500 g ai/ha, 0 to 100 scale, 0 is no effect, 100 is complete control, read-out: Blackgrass plant response rating
Summary of the method: (§1)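 In a loam soil and sand blend, planted seeds got a preemergence directed soil spray, and young plants at the one- to two-leaf stage, 2–10 cm high, got a postemergence application; ~10 d greenhouse hold; injury rated visually, 0 = none, 100 = complete control.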

[2] = test system: pigweed (Amaranthus retroflexus); assay: Test A postemergence; conditions: Amaranthus retroflexus, post-emergence, 240 h, postemergence; for pest or weed control at 125 g/ha: 125 g ai/ha, visual injury vs untreated controls after approx. 10 d, 0 = no effect, 100 = complete control, read-out: Pigweed plant response rating (0 to 100 scale); for pest or weed control at 500 g/ha: 500 g ai/ha, 0 to 100 scale, 0 is no effect, 100 is complete control, read-out: Pigweed plant response rating
Summary of the method: as §1

[3] = test system: wheat (Triticum aestivum); assay: Test A postemergence; conditions: Triticum aestivum, post-emergence, 240 h, postemergence; for plant injury at 125 g/ha: 125 g ai/ha, visual injury vs untreated controls after approx. 10 d, 0 = no effect, 100 = complete control, read-out: Wheat plant response rating (0 to 100 scale); for plant injury at 500 g/ha: 500 g ai/ha, 0 to 100 scale, 0 is no effect, 100 is complete control, read-out: Wheat plant response rating
Summary of the method: as §1

[4] = test system: ryegrass, Italian (Italian ryegrass, Lolium multiflorum); assay: Test A postemergence; conditions: Lolium multiflorum, post-emergence, 240 h, postemergence; for pest or weed control at 125 g/ha: 125 g ai/ha, visual injury vs untreated controls after approx. 10 d, 0 = no effect, 100 = complete control, read-out: Ryegrass, Italian plant response rating (0 to 100 scale); for pest or weed control at 500 g/ha: 500 g ai/ha, 0 to 100 scale, 0 is no effect, 100 is complete control, read-out: Ryegrass, Italian plant response rating
Summary of the method: as §1

[5] = test system: ragweed (common ragweed, Ambrosia elatior); assay: Test A postemergence; conditions: Ambrosia artemisiifolia, post-emergence, 240 h, postemergence; for pest or weed control at 125 g/ha: 125 g ai/ha, visual injury vs untreated controls after approx. 10 d, 0 = no effect, 100 = complete control, read-out: Ragweed plant response rating (0 to 100 scale); for pest or weed control at 500 g/ha: 500 g ai/ha, 0 to 100 scale, 0 is no effect, 100 is complete control, read-out: Ragweed plant response rating
Summary of the method: as §1

[6] = test system: giant foxtail (Setaria faberii); assay: Test A postemergence; conditions: Setaria faberi, post-emergence, 240 h, postemergence; for pest or weed control at 125 g/ha: 125 g ai/ha, visual injury vs untreated controls after approx. 10 d, 0 = no effect, 100 = complete control, read-out: Foxtail, Giant plant response rating (0 to 100 scale); for pest or weed control at 500 g/ha: 500 g ai/ha, 0 to 100 scale, 0 is no effect, 100 is complete control, read-out: Foxtail, Giant plant response rating
Summary of the method: as §1

[7] = test system: Galium (catchweed bedstraw, Galium aparine); assay: Test A postemergence; conditions: Galium, post-emergence, 240 h, postemergence; for pest or weed control at 125 g/ha: 125 g ai/ha, visual injury vs untreated controls after approx. 10 d, 0 = no effect, 100 = complete control, read-out: Galium plant response rating (0 to 100 scale); for pest or weed control at 500 g/ha: 500 g ai/ha, 0 to 100 scale, 0 is no effect, 100 is complete control, read-out: Galium plant response rating
Summary of the method: as §1

[8] = test system: corn (Zea mays); assay: Test A postemergence; conditions: Zea mays, post-emergence, 240 h, postemergence; for plant injury at 125 g/ha: 125 g ai/ha, visual injury vs untreated controls after approx. 10 d, 0 = no effect, 100 = complete control, read-out: Corn plant response rating (0 to 100 scale); for plant injury at 500 g/ha: 500 g ai/ha, 0 to 100 scale, 0 is no effect, 100 is complete control, read-out: Corn plant response rating
Summary of the method: as §1

[9] = test system: Kochia (Kochia scoparia); assay: Test A postemergence; conditions: Bassia scoparia, post-emergence, 240 h, postemergence; for pest or weed control at 125 g/ha: 125 g ai/ha, visual injury vs untreated controls after approx. 10 d, 0 = no effect, 100 = complete control, read-out: Kochia plant response rating (0 to 100 scale); for pest or weed control at 500 g/ha: 500 g ai/ha, 0 to 100 scale, 0 is no effect, 100 is complete control, read-out: Kochia plant response rating
Summary of the method: as §1

[10] = test system: barnyardgrass (Echinochloa crus-galli); assay: Test B flooded paddy test; conditions: Echinochloa crus-galli, 250 g ai/ha, Flood; 0 to 100 scale where 0 is no effect and 100 is complete control; read-out: Barnyardgrass plant response rating
Summary of the method: (§2)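 Flooding to 3 cm over soil accompanied treatment, which consisted of adding compound to the standing water around 2-leaf plants; depth was then maintained. Visual assessment versus controls followed at 13 to 15 d (scale 0–100, 0 meaning no effect).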

[11] = test system: sedge, umbrella (small-flower umbrella sedge, Cyperus difformis); assay: Test B flooded paddy test; conditions: Cyperus difformis, 250 g ai/ha, Flood; 0 to 100 scale where 0 is no effect and 100 is complete control; read-out: Sedge, Umbrella plant response rating
Summary of the method: as §2

[12] = test system: ducksalad (Heteranthera limosa); assay: Test B flooded paddy test; conditions: Heteranthera limosa, 250 g ai/ha, Flood; 0 to 100 scale where 0 is no effect and 100 is complete control; read-out: Ducksalad plant response rating
Summary of the method: as §2

[13] = test system: rice (Oryra sativa); assay: Test B flooded paddy test; conditions: Oryza sativa, 250 g ai/ha, Flood; 0 to 100 scale where 0 is no effect and 100 is complete control; read-out: Rice plant response rating
Summary of the method: as §2

Row | SMILES | pest or weed control at 125 g/ha [1] [%] | pest or weed control at 500 g/ha [1] [%] | pest or weed control at 125 g/ha [2] [%] | pest or weed control at 500 g/ha [2] [%] | plant injury at 125 g/ha [3] [%] | plant injury at 500 g/ha [3] [%] | pest or weed control at 125 g/ha [4] [%] | pest or weed control at 500 g/ha [4] [%] | pest or weed control at 125 g/ha [5] [%] | pest or weed control at 500 g/ha [5] [%] | pest or weed control at 125 g/ha [6] [%] | pest or weed control at 500 g/ha [6] [%] | pest or weed control at 125 g/ha [7] [%] | pest or weed control at 500 g/ha [7] [%] | plant injury at 125 g/ha [8] [%] | plant injury at 500 g/ha [8] [%] | pest or weed control at 125 g/ha [9] [%] | pest or weed control at 500 g/ha [9] [%] | pest or weed control at 250 g/ha [10] [%] | pest or weed control at 250 g/ha [11] [%] | also measured
1 | CN1C[C@H](c2ccc3c(c2)OC(F)(F)O3)[C@@H](C(=O)Nc2ccc(F)c(F)c2F)C1=O [Compound 1204] | 50 | 70 | 70 | 80 | 60 | 70 | 70 | 80 | 20 | 60 | 90 | 90 | 50 | 60 | 70 | 80 | 80 | 80 | 70 | 0 | pest or weed control at 250 g/ha [12]: 100%; pest or weed control at 250 g/ha [13]: 0%
2 | COc1ccc([C@H]2CN(C)C(=O)[C@@H]2C(=O)Nc2ccccc2F)c(OC)c1 [Compound 1215] | 0 | 0 | 0 | 0 | 0 | 0 | 0 | 0 | 0 | 0 | 70 | 90 | 0 | 0 | 0 | 0 | 0 | 30 | 0 | 0 | pest or weed control at 250 g/ha [12]: 70%; pest or weed control at 250 g/ha [13]: 0%
3 | COc1cc([C@H]2CN(C)C(=O)[C@@H]2C(=O)Nc2ccccc2F)cc(OC)c1OC [Compound 1217] | 0 | 0 | 0 | 0 | 0 | 0 | 0 | 0 | 0 | 0 | 90 | 90 | 0 | 0 | 0 | 0 | 0 | 0 | 0 | 0 | pest or weed control at 250 g/ha [12]: 40%; pest or weed control at 250 g/ha [13]: 25%
